Results reported in publication PMC12300041, “Tricyclic Isatin Derivatives as Anti-Inflammatory Compounds with High Kinase Binding Affinity” (Molecules, 2025).

Legend:
Assay in all cases: KINOMEscan
Assay type in all cases: binding
CSNK1G1 = target: T1, CSNK1G1 (Homo sapiens, UniProt Q9HCP0)
T1 construct: purchased Eurofins DiscoverX KINOMEscan
Outline: (§1)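 Dissociation constants derive from a 12-point, half-log compound titration (highest 33 μM). Each binding reaction ran 1 h at room temperature before qPCR quantification of kinase captured on an immobilized affinity ligand.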

DMPK = target: T2, DMPK (Homo sapiens, UniProt Q09013)
T2 construct: purchased Eurofins DiscoverX KINOMEscan
Outline: as §1

PLK1 = target: T3, PLK1 (Homo sapiens, UniProt P53350)
T3 construct: purchased Eurofins DiscoverX KINOMEscan
Outline: as §1

CASK = target: T4, CASK (Homo sapiens, UniProt O14936)
T4 construct: purchased Eurofins DiscoverX KINOMEscan
Outline: as §1

[1] = target: T5, JAK1 (JH2domain-pseudokinase) (Homo sapiens, UniProt P23458)
T5 construct: JAK1 (JH2domain-pseudokinase); purchased Eurofins DiscoverX KINOMEscan
Outline: as §1

CAMK4 = target: T6, CAMK4 (Homo sapiens, UniProt Q16566)
T6 construct: purchased Eurofins DiscoverX KINOMEscan
Outline: as §1

FGFR2 = target: T7, FGFR2 (Homo sapiens, UniProt P21802)
T7 construct: purchased Eurofins DiscoverX KINOMEscan
Outline: as §1

ROCK1 = target: T8, ROCK1 (Homo sapiens, UniProt Q13464)
T8 construct: purchased Eurofins DiscoverX KINOMEscan
Outline: as §1

[2] = target: T9, RPS6KA4 (Kin. Dom.2-C-term.) (Homo sapiens, UniProt O75676)
T9 construct: RPS6KA4 (Kin. Dom.2-C-term.); purchased Eurofins DiscoverX KINOMEscan
Outline: as §1

PKMYT1 = target: T10, PKMYT1 (Homo sapiens, UniProt Q99640)
T10 construct: purchased Eurofins DiscoverX KINOMEscan
Outline: as §1

DDR2 = target: T11, DDR2 (Homo sapiens, UniProt Q16832)
T11 construct: purchased Eurofins DiscoverX KINOMEscan
Outline: as §1

CDK3 = target: T12, CDK3 (Homo sapiens, UniProt Q00526)
T12 construct: purchased Eurofins DiscoverX KINOMEscan
Outline: as §1

AKT3 = target: T13, AKT3 (Homo sapiens, UniProt Q9Y243)
T13 construct: purchased Eurofins DiscoverX KINOMEscan
Outline: as §1

LATS2 = target: T14, LATS2 (Homo sapiens, UniProt Q9NRM7)
T14 construct: purchased Eurofins DiscoverX KINOMEscan
Outline: as §1

WNK3 = target: T15, WNK3 (Homo sapiens, UniProt Q9BYP7)
T15 construct: purchased Eurofins DiscoverX KINOMEscan
Outline: as §1

LOK = target: T16, LOK (Homo sapiens, UniProt O94804)
T16 construct: purchased Eurofins DiscoverX KINOMEscan
Outline: as §1

DMPK2 = target: T17, DMPK2 (Homo sapiens, UniProt Q6DT37)
T17 construct: purchased Eurofins DiscoverX KINOMEscan
Outline: as §1

CSNK1A1L = target: T18, CSNK1A1L (Homo sapiens, UniProt Q8N752)
T18 construct: purchased Eurofins DiscoverX KINOMEscan
Outline: as §1

MYLK = target: T19, MYLK (Homo sapiens, UniProt Q15746)
T19 construct: purchased Eurofins DiscoverX KINOMEscan
Outline: as §1

PIKFYVE = target: T20, PIKFYVE (Homo sapiens, UniProt Q9Y2I7)
T20 construct: purchased Eurofins DiscoverX KINOMEscan
Outline: as §1

FGFR3 = target: T21, FGFR3 (Homo sapiens, UniProt P22607)
T21 construct: purchased Eurofins DiscoverX KINOMEscan
Outline: as §1

ABL1 (Q252H)-non-P = target: T22, ABL1 (Q252H)-non-P (Homo sapiens, UniProt P00519, Q252H)
T22 construct: purchased Eurofins DiscoverX KINOMEscan
Outline: as §1

EPHA8 = target: T23, EPHA8 (Homo sapiens, UniProt P29322)
T23 construct: purchased Eurofins DiscoverX KINOMEscan
Outline: as §1

RIPK2 = target: T24, RIPK2 (Homo sapiens, UniProt O43353)
T24 construct: purchased Eurofins DiscoverX KINOMEscan
Outline: as §1

MRCKB = target: T25, MRCKB (Homo sapiens, UniProt Q9Y5S2)
T25 construct: purchased Eurofins DiscoverX KINOMEscan
Outline: as §1

PAK2 = target: T26, PAK2 (Homo sapiens, UniProt Q13177)
T26 construct: purchased Eurofins DiscoverX KINOMEscan
Outline: as §1

MET (M1250T) = target: T27, MET (M1250T) (Homo sapiens, UniProt P08581, M1250T)
T27 construct: purchased Eurofins DiscoverX KINOMEscan
Outline: as §1

TRPM6 = target: T28, TRPM6 (Homo sapiens, UniProt Q9BX84)
T28 construct: purchased Eurofins DiscoverX KINOMEscan
Outline: as §1

CDK4 = target: T29, CDK4 (Homo sapiens, UniProt P11802)
T29 construct: purchased Eurofins DiscoverX KINOMEscan
Outline: as §1

SGK2 = target: T30, SGK2 (Homo sapiens, UniProt Q9HBY8)
T30 construct: purchased Eurofins DiscoverX KINOMEscan
Outline: as §1

MERTK = target: T31, MERTK (Homo sapiens, UniProt Q12866)
T31 construct: purchased Eurofins DiscoverX KINOMEscan
Outline: as §1

PRKD2 = target: T32, PRKD2 (Homo sapiens, UniProt Q9BZL6)
T32 construct: purchased Eurofins DiscoverX KINOMEscan
Outline: as §1

HUNK = target: T33, HUNK (Homo sapiens, UniProt P57058)
T33 construct: purchased Eurofins DiscoverX KINOMEscan
Outline: as §1

FLT1 = target: T34, FLT1 (Homo sapiens, UniProt P17948)
T34 construct: purchased Eurofins DiscoverX KINOMEscan
Outline: as §1

MYLK2 = target: T35, MYLK2 (Homo sapiens, UniProt Q9H1R3)
T35 construct: purchased Eurofins DiscoverX KINOMEscan
Outline: as §1

CAMK2D = target: T36, CAMK2D (Homo sapiens, UniProt Q13557)
T36 construct: purchased Eurofins DiscoverX KINOMEscan
Outline: as §1

MST1 = target: T37, MST1 (Homo sapiens, UniProt Q13043)
T37 construct: purchased Eurofins DiscoverX KINOMEscan
Outline: as §1

CHEK2 = target: T38, CHEK2 (Homo sapiens, UniProt O96017)
T38 construct: purchased Eurofins DiscoverX KINOMEscan
Outline: as §1

CDC2L1 = target: T39, CDC2L1 (Homo sapiens, UniProt P21127)
T39 construct: purchased Eurofins DiscoverX KINOMEscan
Outline: as §1

T36 sequence (Q13557 whole entry): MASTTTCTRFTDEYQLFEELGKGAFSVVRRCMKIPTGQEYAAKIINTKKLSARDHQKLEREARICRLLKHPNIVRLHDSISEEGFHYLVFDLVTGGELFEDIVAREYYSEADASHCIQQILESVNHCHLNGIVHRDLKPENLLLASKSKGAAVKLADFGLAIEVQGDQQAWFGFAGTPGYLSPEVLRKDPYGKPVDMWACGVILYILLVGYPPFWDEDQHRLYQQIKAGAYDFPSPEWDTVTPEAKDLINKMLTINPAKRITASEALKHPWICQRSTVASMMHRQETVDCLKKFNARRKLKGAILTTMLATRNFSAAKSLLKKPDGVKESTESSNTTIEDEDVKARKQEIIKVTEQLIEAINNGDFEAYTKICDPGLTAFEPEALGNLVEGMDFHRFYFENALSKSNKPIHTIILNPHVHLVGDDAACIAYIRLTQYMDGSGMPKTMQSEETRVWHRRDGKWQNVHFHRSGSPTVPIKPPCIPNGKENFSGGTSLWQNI
T11 sequence (Q16832 22-855): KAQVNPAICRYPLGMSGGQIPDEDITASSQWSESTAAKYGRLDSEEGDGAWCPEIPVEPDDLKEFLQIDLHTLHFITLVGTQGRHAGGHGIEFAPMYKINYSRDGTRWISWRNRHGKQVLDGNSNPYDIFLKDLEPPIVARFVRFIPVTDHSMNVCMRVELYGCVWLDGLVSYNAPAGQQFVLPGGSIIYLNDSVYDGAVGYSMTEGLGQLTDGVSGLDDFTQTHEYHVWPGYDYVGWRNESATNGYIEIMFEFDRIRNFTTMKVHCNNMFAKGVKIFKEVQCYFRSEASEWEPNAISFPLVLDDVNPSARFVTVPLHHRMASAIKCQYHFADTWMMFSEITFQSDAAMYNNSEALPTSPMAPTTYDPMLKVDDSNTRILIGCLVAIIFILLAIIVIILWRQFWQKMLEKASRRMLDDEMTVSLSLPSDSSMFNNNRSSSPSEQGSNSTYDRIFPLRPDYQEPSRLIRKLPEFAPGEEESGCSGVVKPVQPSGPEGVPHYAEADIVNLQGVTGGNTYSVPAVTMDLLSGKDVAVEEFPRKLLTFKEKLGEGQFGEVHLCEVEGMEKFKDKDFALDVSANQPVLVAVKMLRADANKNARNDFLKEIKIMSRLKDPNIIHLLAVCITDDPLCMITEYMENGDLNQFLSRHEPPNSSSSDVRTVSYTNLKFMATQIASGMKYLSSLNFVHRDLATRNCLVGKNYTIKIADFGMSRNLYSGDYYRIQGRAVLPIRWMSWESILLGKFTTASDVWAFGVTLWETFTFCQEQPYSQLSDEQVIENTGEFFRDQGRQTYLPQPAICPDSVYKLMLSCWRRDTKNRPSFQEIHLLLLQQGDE
T38 sequence (O96017 whole entry): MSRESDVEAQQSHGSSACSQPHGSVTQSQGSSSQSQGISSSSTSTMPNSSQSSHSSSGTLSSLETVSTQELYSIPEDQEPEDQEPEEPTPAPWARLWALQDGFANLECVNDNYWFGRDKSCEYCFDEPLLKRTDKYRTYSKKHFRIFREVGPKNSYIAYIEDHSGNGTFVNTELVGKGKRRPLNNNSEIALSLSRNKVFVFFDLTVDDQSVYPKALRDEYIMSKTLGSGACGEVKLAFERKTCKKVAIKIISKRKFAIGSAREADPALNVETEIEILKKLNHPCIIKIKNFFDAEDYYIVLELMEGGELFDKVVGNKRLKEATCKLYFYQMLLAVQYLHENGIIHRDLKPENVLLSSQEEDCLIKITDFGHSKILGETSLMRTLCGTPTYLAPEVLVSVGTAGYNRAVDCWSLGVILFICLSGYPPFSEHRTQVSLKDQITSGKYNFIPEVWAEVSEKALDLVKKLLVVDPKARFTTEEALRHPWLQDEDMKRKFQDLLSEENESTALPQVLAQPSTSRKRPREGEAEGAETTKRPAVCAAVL
T12 sequence (Q00526 whole entry): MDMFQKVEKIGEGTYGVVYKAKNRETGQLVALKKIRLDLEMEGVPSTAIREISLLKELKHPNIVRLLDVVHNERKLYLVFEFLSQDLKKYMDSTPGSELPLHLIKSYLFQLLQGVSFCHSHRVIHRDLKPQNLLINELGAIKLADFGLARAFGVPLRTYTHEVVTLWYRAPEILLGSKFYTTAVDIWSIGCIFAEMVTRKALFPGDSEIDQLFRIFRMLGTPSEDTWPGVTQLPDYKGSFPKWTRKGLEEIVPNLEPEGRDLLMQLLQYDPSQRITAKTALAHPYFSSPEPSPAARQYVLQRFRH
T17 sequence (Q6DT37 whole entry): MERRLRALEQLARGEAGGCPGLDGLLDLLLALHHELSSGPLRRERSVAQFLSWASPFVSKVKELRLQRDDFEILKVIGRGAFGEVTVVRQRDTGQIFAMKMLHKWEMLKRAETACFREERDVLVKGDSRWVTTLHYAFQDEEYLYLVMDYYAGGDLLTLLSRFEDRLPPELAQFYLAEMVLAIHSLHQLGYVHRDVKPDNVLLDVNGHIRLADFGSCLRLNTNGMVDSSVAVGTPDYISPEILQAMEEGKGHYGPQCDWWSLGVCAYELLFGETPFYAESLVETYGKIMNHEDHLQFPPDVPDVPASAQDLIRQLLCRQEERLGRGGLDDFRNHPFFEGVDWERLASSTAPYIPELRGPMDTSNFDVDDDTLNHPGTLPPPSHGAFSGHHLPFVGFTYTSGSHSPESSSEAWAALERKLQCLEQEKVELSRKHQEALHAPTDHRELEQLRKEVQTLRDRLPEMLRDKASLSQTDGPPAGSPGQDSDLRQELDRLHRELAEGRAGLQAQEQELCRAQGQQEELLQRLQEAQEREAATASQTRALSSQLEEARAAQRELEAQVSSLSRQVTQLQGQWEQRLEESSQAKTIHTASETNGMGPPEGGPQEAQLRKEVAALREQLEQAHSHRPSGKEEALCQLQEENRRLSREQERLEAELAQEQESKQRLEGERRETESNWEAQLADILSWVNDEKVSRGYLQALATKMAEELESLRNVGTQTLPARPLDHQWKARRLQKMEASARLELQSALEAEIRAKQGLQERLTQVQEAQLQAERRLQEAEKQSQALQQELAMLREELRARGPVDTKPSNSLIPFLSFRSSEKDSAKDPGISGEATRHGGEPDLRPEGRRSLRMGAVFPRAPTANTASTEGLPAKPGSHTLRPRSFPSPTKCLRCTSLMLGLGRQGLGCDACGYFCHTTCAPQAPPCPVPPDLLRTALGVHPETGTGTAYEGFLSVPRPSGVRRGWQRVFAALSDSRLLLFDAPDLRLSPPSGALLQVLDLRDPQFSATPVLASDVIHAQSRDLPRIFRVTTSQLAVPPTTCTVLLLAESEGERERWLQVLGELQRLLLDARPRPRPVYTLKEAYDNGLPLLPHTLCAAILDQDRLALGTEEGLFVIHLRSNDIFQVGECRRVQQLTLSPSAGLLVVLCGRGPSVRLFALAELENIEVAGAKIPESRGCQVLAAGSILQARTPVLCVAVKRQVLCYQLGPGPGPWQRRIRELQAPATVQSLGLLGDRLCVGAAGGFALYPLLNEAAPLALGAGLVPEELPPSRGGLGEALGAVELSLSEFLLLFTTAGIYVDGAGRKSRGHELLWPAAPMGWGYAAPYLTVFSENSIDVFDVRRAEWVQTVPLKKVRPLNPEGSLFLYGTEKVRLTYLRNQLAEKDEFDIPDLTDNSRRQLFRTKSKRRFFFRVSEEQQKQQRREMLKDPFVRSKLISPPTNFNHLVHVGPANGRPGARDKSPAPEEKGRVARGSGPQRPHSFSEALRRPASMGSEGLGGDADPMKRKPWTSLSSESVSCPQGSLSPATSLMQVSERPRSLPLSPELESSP
T31 sequence (Q12866 21-999): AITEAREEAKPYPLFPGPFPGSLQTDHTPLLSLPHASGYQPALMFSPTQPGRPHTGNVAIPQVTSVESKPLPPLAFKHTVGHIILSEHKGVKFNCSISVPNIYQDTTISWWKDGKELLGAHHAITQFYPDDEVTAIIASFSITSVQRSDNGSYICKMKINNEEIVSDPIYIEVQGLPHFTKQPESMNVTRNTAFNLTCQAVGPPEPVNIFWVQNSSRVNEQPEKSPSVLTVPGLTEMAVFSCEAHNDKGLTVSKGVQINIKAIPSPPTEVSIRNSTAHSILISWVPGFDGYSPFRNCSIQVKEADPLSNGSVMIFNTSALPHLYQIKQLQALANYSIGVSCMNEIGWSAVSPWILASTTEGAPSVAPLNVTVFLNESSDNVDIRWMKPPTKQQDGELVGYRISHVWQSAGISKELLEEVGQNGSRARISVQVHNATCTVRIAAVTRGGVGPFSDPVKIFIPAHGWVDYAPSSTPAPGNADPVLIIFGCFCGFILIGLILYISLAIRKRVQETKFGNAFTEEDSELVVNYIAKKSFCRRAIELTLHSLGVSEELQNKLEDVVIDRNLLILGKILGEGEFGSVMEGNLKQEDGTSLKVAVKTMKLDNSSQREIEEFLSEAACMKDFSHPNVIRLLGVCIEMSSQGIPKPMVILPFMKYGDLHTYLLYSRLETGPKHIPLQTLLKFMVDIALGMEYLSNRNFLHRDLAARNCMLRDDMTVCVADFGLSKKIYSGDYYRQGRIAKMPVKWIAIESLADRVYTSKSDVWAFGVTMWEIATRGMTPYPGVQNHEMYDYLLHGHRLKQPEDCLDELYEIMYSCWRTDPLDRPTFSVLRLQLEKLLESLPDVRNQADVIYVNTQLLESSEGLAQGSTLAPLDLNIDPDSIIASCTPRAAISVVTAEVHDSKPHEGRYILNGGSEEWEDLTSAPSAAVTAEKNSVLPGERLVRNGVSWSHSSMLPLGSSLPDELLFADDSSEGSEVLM
T30 sequence (Q9HBY8 whole entry): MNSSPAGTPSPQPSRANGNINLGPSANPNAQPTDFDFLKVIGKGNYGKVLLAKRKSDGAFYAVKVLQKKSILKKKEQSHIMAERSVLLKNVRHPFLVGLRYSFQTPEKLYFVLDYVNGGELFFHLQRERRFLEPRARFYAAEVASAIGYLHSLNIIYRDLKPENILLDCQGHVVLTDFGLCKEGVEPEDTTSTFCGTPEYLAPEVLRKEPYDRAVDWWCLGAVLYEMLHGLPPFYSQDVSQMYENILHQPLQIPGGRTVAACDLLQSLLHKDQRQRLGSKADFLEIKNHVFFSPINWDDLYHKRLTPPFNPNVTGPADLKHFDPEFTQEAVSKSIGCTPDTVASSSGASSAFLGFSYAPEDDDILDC

O=C1Nc2c(cc([N+](=O)[O-])c3c2CCCC3)C1=NO [Compound 5d, 3-(Hydroxyimino)-5-nitro-1,3,6,7,8,9-hexahydro-2H-benzo[g]indol-2-one]
inhibition at 10 µM (CSNK1G1): 84% | inhibition at 10 µM (DMPK): 49% | inhibition at 10 µM (PLK1): 71% | inhibition at 10 µM (CASK): 2% | inhibition at 10 µM [1]: 89% | inhibition at 10 µM (CAMK4): 7% | inhibition at 10 µM (FGFR2): 19% | inhibition at 10 µM (ROCK1): 61% | inhibition at 10 µM [2]: 89.3% | inhibition at 10 µM (PKMYT1): 0% | inhibition at 10 µM (DDR2): 0% | inhibition at 10 µM (CDK3): 13% | inhibition at 10 µM (AKT3): 9% | inhibition at 10 µM (LATS2): 28% | inhibition at 10 µM (WNK3): 28% | inhibition at 10 µM (LOK): 73% | inhibition at 10 µM (DMPK2): 3% | inhibition at 10 µM (CSNK1A1L): 63% | inhibition at 10 µM (MYLK): 93.9% | inhibition at 10 µM (PIKFYVE): 28% | inhibition at 10 µM (FGFR3): 14% | inhibition at 10 µM (ABL1 (Q252H)-non-P): 55% | inhibition at 10 µM (EPHA8): 0% | inhibition at 10 µM (RIPK2): 0% | inhibition at 10 µM (MRCKB): 0% | inhibition at 10 µM (PAK2): 41% | inhibition at 10 µM (MET (M1250T)): 51% | inhibition at 10 µM (TRPM6): 8% | inhibition at 10 µM (CDK4): 7% | inhibition at 10 µM (SGK2): 88% | inhibition at 10 µM (MERTK): 4% | inhibition at 10 µM (PRKD2): 77% | inhibition at 10 µM (HUNK): 0% | inhibition at 10 µM (FLT1): 12% | inhibition at 10 µM (MYLK2): 30% | inhibition at 10 µM (CAMK2D): 51% | inhibition at 10 µM (MST1): 32% | inhibition at 10 µM (CHEK2): 48% | inhibition at 10 µM (CDC2L1): 0%
